Test results taken from patent US20040086995A1, “Beta1, 4-N-Acetylgalactosaminyltransferases, nucleic acids and methods of use thereof” (priority 2002, published 2004).

Key:
[1] = target: T1, SH-Ceβ4GalNAcT (Caenorhabditis elegans, UniProt Q9GUM2); experiment: β4GalNAcT assay, acceptor specificity; assay type: biochemical, C. elegans
T1 construct: the catalytic domain of the Ceβ4GalNAcT (beginning at K34, the first amino acid after the transmembrane domain); signal peptide (from vector pcDNA3.1(+)-TH) (N); made in house; host or cells: CHO-Lec8 (and CHO-Lec2) cells, stably transfected; enzyme captured from the culture medium on HPC4-UltraLink beads
Method: (§1) Purification of SH-C.E.β4GalNAcT—Medium containing SH-Ceβ4GalNAcT was centrifuged at 1,500×g for 5 min to remove cellular debris, and then incubated with HPC4-UltraLink beads (5 mg HPC4 antibody per ml of beads; 0.1 ml of beads per ml of medium) for one hour at room temperature on a rotating platform. The beads were collected by centrifugation at 600×g for 3 min, and washed three times with 10 ml of 100 mM sodium cacodylate pH 7.0, 2 mM CaCl2. The beads were then resuspended in the same buffer with the addition of 20 mM MnCl2, and used as the enzyme source. For Western blot analysis, the bound material was released by incubating the beads in a buffer of 50 mM sodium cacodylate pH 7.0, 20 mM EDTA for 10 min at room temperature, then collecting the supernatant.
β4GalNAcT assays—Standard assays were performed essentially as described previously (40) in a […] reaction mixture containing […] sodium cacodylate pH 7.2, 12.5 nmol UDP-[^3H]GalNAc (2.5 Ci/mol), […] MnCl2, […] ATP, […] Triton X-100, […] beads and acceptor substrate, containing 25 nmol of terminal GlcNAc at the non-reducing end unless otherwise indicated. Control assays lacking the acceptor substrate were carried out to correct for incorporation into endogenous acceptors, and all assays were carried out in duplicate. […] The isolated products were assayed for incorporation of radioactivity by liquid scintillation.

[2] = target: T1, SH-Ceβ4GalNAcT; experiment: β4GalNAcT assay, effect of α-lactalbumin on acceptor use; assay type: biochemical, C. elegans; conditions: for Relative activity (%): UDPGalNAc 0.5 mM, GlcNAc 1 mM or Glc 30 mM
Method: as §1
(§2) β4GalNAcT assays—Standard assays were performed essentially as described previously (40) in a […] reaction mixture containing […] sodium cacodylate pH 7.2, 12.5 nmol UDP-[^3H]GalNAc (2.5 Ci/mol), […] MnCl2, […] ATP, […] Triton X-100, […] beads and acceptor substrate, containing 25 nmol of terminal GlcNAc at the non-reducing end unless otherwise indicated. Control assays lacking the acceptor substrate were carried out to correct for incorporation into endogenous acceptors, and all assays were carried out in duplicate. After incubation at 37° C. for 180 min the reaction was stopped. When oligosaccharides or glycopeptides were the acceptor, the labeled product was separated from unincorporated label by chromatography on a 1-ml column of Dowex 1-X8 (Cl^−-form) according to Easton et al., (44). When oligosaccharide acceptors with hydrophobic aglycon (pNP) were used as the acceptor, the product was isolated using Sep-pak C-18 cartridges (Waters) as described (45). The isolated products were assayed for incorporation of radioactivity by liquid scintillation.

[3] = target: T1, SH-Ceβ4GalNAcT; experiment: β4GalNAcT assay, sugar nucleotide (donor) specificity; assay type: biochemical, C. elegans; conditions: for Relative activity (%): acceptor GlcNAcβ-S-pNP 1 mM, donor 0.5 mM, enzyme on HPC4-beads, 100% = UDP-GalNAc
Method: as §1, §2

[4] = target: SH-Ceβ4GalNAcT (soluble, HPC4-epitope tagged form of C. elegans UDPGalNAc:GlcNAcβ-R β1,4-N-acetylgalactosaminyltransferase, encoded by Y73E7A.7) (C. elegans); experiment: cell-based or functional assay
Chain of SH-Ceβ4GalNAcT (soluble, HPC4-epitope tagged form of C. elegans UDPGalNAc:GlcNAcβ-R β1,4-N-acetylgalactosaminyltransferase, encoded by Y73E7A.7) (C. elegans) (Q9GUM2 34-383): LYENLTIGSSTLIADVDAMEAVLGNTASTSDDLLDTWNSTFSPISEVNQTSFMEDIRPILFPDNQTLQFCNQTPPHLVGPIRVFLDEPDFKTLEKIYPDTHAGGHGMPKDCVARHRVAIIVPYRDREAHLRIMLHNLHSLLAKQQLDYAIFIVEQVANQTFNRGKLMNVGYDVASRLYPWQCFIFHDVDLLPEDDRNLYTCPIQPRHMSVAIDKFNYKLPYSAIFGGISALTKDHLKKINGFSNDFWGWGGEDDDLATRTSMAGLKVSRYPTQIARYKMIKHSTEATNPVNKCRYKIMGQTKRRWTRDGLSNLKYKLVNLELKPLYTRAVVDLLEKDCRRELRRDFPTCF

T1 sequence (Q9GUM2 30-383 limits assumed): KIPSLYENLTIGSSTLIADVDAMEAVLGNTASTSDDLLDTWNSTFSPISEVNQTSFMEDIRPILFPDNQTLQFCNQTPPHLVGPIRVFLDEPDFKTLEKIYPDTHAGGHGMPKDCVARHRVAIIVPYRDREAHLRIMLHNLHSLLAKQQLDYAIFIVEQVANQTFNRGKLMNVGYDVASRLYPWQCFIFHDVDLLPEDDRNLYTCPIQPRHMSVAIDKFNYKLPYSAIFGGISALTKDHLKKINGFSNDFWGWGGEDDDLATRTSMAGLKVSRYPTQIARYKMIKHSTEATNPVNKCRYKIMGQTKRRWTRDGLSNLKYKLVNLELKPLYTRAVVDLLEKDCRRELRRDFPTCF

Relative activity (%) ([2]; with a-Lactalbumin 5 mg/ml)	Relative activity (%) ([2]; without a-Lactalbumin)	utilization as nucleotide-sugar donor [3]	Relative activity (%) [3] [%]	Molecule	also measured
6	3			OC[C@H]1OC(O)[C@H](O)[C@@H](O)[C@@H]1O (stereo partly drawn) [Glc]	
		efficiently utilized	100	CC(=O)N[C@H]1[C@@H](OP(=O)(O)OP(=O)(O)OC[C@H]2O[C@@H](n3ccc(=O)[nH]c3=O)[C@H](O)[C@@H]2O)O[C@H](CO)[C@H](O)[C@@H]1O [UDP-GalNAc]	
		did not significantly utilize	0.7	CC(=O)N[C@H]1[C@@H](OP(=O)(O)OP(=O)(O)OC[C@H]2O[C@@H](n3ccc(=O)[nH]c3=O)[C@H](O)[C@@H]2O)O[C@H](CO)[C@@H](O)[C@@H]1O [UDP-GlcNAc]	

The remaining lines, values behind:

Molecule	Relative activity (%) ([2]; with a-Lactalbumin 5 mg/ml)	Relative activity (%) ([2]; without a-Lactalbumin)	utilization as nucleotide-sugar donor [3]	Relative activity (%) [3] [%]	also measured
CC(=O)N[C@@H]1[C@@H](O)[C@H](O)[C@@H](CO)O[C@H]1O [Acceptor 9, GlcNAc]	40	100			utilization as acceptor substrate [1]: efficiently utilized
α-lactalbumin					Relative activity (%) of SH-Ceβ4GalNAcT with Glc (30 mM) as acceptor in the presence of a-lactalbumin (5 mg/ml); 3 without it [4]: 6%; Relative activity (%) of SH-Ceβ4GalNAcT with GlcNAc (1 mM) as acceptor in the presence of a-lactalbumin (5 mg/ml); 100 without it [4]: 40%
a-lactalbumin: modifier protein expressed in lactating mammary glands, associates with β4GalT I and switches its acceptor specificity (protein, UniProt P00709 20-142, looked up) Alpha-lactalbumin: KQFTKCELSQLLKDIDGYGGIALPELICTMFHTSGYDTQAIVENNESTEYGLFQISNKLWCKSSQVPQSRNICDISCDKFLDDDITDDIMCAKKILDIKGIDYWLAHKALCTEKLEQWLCEKL					effect of α-lactalbumin on acceptor specificity [2]: did not induce SH-Ceβ4GalNAcT to utilize Glc as an acceptor instead of GlcNAc
